The record followed here is patent US11352344B2, “Antagonists of the muscarinic acetylcholine receptor M4” (Vanderbilt University, priority 2017, dated 2022).

This assay concerns the target T1, Human M4 (Homo sapiens, UniProt P08173).
T1 construct: expressed in transfected cells; host or cells: CHO-K1 (Chinese hamster ovary) cells, stably co-transfected with Gqi5
T1 sequence (P08173 1-479): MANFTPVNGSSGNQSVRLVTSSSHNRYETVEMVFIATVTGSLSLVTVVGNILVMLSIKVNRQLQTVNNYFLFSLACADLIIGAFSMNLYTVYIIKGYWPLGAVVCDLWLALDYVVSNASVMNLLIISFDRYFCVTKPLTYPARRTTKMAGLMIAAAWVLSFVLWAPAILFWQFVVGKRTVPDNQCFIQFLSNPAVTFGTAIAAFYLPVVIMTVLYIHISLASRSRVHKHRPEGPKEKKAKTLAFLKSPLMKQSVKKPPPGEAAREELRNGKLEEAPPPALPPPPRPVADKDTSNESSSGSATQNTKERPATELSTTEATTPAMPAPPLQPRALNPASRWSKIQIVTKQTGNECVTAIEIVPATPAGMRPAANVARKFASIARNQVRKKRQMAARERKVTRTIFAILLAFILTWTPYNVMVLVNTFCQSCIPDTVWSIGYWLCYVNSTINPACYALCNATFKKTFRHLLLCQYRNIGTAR
Briefly: mAChR M4 cell-based functional assay (calcium flux, antagonism of EC80 acetylcholine response). Conditions: for remaining activity at 30 µM: % ACh maximum at 30 μM, human M4, read-out: Emin; for pIC50: M4/Gqi5/CHO-K1 cells, decrease of response to EC80 acetylcholine. How it is done:
Human or rat M4 cDNA, along with the chimeric G protein Gqi5, were transfected into Chinese hamster ovary (CHO-K1) cells purchased from the American Type Culture Collection using Lipofectamine2000. M4/Gqi5/CHO cells were grown in Ham's F-12 medium containing 10% heat-inactivated fetal bovine serum (FBS), 20 mM HEPES, 500 μg/mL G418 sulfate, and 200 μg/mL Hygromycin B.
For high throughput measurement of agonist-evoked increases in intracellular calcium, CHO-K1 cells stably expressing muscarinic receptors were plated in growth medium lacking G418 and hygromycin at 15,000 cells/20 μL/well in Greiner 384-well black-walled, tissue culture (TC)-treated, clear-bottom plates (VWR). Cells were incubated overnight at 37° C. and 5% CO2. The next day, cells were washed using an ELX 405 (BioTek) with assay buffer; the final volume was then aspirated to 20 μL. Next, 20 μL of a 2.3 μM stock of Fluo-4/acetoxymethyl ester (Invitrogen, Carlsbad, Calif.), prepared as a 2.3 mM stock in DMSO and mixed in a 1:1 ratio with 10% (w/v) Pluronic F-127 and diluted in assay buffer, was added to the wells and the cell plates were incubated for 50 min at 37° C. and 5% CO2. Dye was removed by washing with the ELX 405 and the final volume was aspirated to 20 μL. Compound master plates were formatted in a 10 point concentration-response curve (CRC) format (1:3 dilutions) in 100% DMSO with a starting concentration of 10 or 1 mM using a BRAVO liquid handler (Agilent). Test compound CRCs were then transferred to daughter plates (240 nL) using the Echo acoustic plate reformatter (Labcyte, Sunnyvale, Calif.) and then diluted into assay buffer (40 μL) to a 2× stock using a Thermo Fisher Combi (Thermo Fisher Scientific, Waltham, Mass.).
Calcium flux was measured using the Functional Drug Screening System (FDSS) 6000 or 7000 (Hamamatsu Corporation, Tokyo, Japan) as an increase in the fluorescent static ratio. Compounds were applied to cells (20 μL, 2×) using the automated system of the FDSS at 2 seconds into the protocol and the data were collected at 1 Hz. At 143 s, 10 μL of an EC20 concentration of the muscarinic receptor agonist acetylcholine was added (5×), followed by the addition of 12 μL of an EC80 concentration of acetylcholine at the 268 s time point (5×). Agonist activity was analyzed as a concentration-dependent increase in calcium mobilization upon compound addition. Positive allosteric modulator activity was analyzed as a concentration-dependent increase in the EC20 acetylcholine response. Antagonist activity was analyzed as a concentration-dependent decrease in the EC80 acetylcholine response; for the purposes of the tables herein, an IC50 (inhibitory concentration 50) was calculated as a concentration-dependent decrease of the response elicited by an EC80 concentration of acetylcholine. Concentration-response curves were generated using a four-parameter logistical equation in XLFit curve fitting software (IDBS, Bridgewater, N.J.) for Excel (Microsoft, Redmond, Wash.) or Prism (GraphPad Software, Inc., San Diego, Calif.) or the Dotmatics software platform (Dotmatics, Bishop's Stortford, UK).
Compounds were synthesized as described above. Activity (IC50 and Emin) was determined in the mAChR M4 cell-based functional assay as described above and the data are shown in Table 5. The compound numbers correspond to the compound numbers used in Examples 1-4 and Tables 1-4.

pIC50: −log10 of the molar value.

On to `Cc1cnn(C)c1-c1ccc(NCC2CCC3CN(CC45CC6CC(CC(C6)C4)C5)CC23)nn1` (stereo not drawn) [Compound 20, N-[[2-(1-adamantylmethyl)-3,3a,4,5,6,6a-hexahydro-1H-cyclopenta[c]pyrrol-4-yl]methyl]-6-(2,4-dimethylpyrazol-3-yl)pyridazin-3-amine], for which the remaining activity at 30 µM came to 4.4% and the pIC50 is 7.28.
For `Cc1cnn(C)c1-c1ccc(NCCC2CCC3CN(CC4CCCOC4)CC23)nn1` (stereo not drawn) [Compound 11, 6-(2,4-dimethylpyrazol-3-yl)-N-[2-[2-(tetrahydropyran-3-ylmethyl)-3,3a,4,5,6,6a-hexahydro-1H-cyclopenta[c]pyrrol-4-yl]ethyl]pyridazin-3-amine] the same measures were 20.9% and under 5.00.
Take `Cc1cnn(C)c1-c1ccc(NCCC2CCC3CN(CC45CC6CC(CC(C6)C4)C5)CC23)nn1` (stereo not drawn) [Compound 18, N-[2-[2-(1-adamantylmethyl)-3,3a,4,5,6,6a-hexahydro-1H-cyclopenta[c]pyrrol-4-yl]ethyl]-6-(2,4-dimethylpyrazol-3-yl)pyridazin-3-amine]: the remaining activity at 30 µM stood at 3.52% and the pIC50 is 6.40.
On to `Cc1cnn(C)c1-c1ccc(OC2CCC3CN(CC45CC6CC(CC(C6)C4)C5)CC32)nn1` (stereo not drawn) [Compound 6, 2-(1-adamantylmethyl)-4-[6-(2,4-dimethylpyrazol-3-yl)pyridazin-3-yl]oxy-3,3a,4,5,6,6a-hexahydro-1H-cyclopenta[c]pyrrole], for which the remaining activity at 30 µM stood at 3.95% and the pIC50 is 5.99.
In the same order, the values of `Cc1cnn(C)c1-c1ccc(NCCC2CCC3CN(CC4CC5C=CC4C5)CC23)nn1` (stereo not drawn) [Compound 13, N-[2-[2-(5-bicyclo[2.2.1]hept-2-enylmethyl)-3,3a,4,5,6,6a-hexahydro-1H-cyclopenta[c]pyrrol-4-yl]ethyl]-6-(2,4-dimethylpyrazol-3-yl)pyridazin-3-amine] are 3.75% and 7.19.
On to `Cc1cccnc1CN1CC2CCC(CNc3ccc(-c4c(C)cnn4C)nn3)C2C1` (stereo not drawn) [Compound 22, 6-(2,4-dimethylpyrazol-3-yl)-N-[[2-[(3-methyl-2-pyridyl)methyl]-3,3a,4,5,6,6a-hexahydro-1H-cyclopenta[c]pyrrol-4-yl]methyl]pyridazin-3-amine], for which the remaining activity at 30 µM stood at 10.8% and the pIC50 is 5.82.
In the case of `Cc1cnn(C)c1-c1ccc(NC2CCC3CN(CC45CC6CC(CC(C6)C4)C5)CC32)nn1` (stereo not drawn) [Compound 2, 2-(1-adamantylmethyl)-N-[6-(2,4-dimethylpyrazol-3-yl)pyridazin-3-yl]-3,3a,4,5,6,6a-hexahydro-1H-cyclopenta[c]pyrrol-4-amine], the remaining activity at 30 µM turned out to be 8.16% and the pIC50 was 5.66.
With `Cc1cnn(C)c1-c1ccc(NCC2CCC3CN(CC4CCOCC4)CC23)nn1` (stereo not drawn) [Compound 25, 6-(2,4-dimethylpyrazol-3-yl)-N-[[2-(tetrahydropyran-4-ylmethyl)-3,3a,4,5,6,6a-hexahydro-1H-cyclopenta[c]pyrrol-4-yl]methyl]pyridazin-3-amine], the remaining activity at 30 µM was found to be 27.8% and the pIC50 is under 5.00.
Consider `Cc1cnn(C)c1-c1ccc(NCCC2CCC3CN(CCCc4ccccc4)CC23)nn1` (stereo not drawn) [Compound 17, 6-(2,4-dimethylpyrazol-3-yl)-N-[2-[2-(3-phenylpropyl)-3,3a,4,5,6,6a-hexahydro-1H-cyclopenta[c]pyrrol-4-yl]ethyl]pyridazin-3-amine], for which the remaining activity at 30 µM was found to be 5.4% and the pIC50 was 5.98.
Regarding `Cc1cnn(C)c1-c1ccc(NC2CCC3CN(CCC(C)(C)C)CC32)nn1` (stereo not drawn) [Compound 1, 2-(3,3-Dimethylbutyl)-N-[6-(2,4-dimethylpyrazol-3-yl)pyridazin-3-yl]-3,3a,4,5,6,6a-hexahydro-1H-cyclopenta[c]pyrrol-4-amine], the remaining activity at 30 µM was 31.1% and the pIC50 was under 5.00.
As to `Cc1cccnc1CN1CC2CCC(CCNc3ccc(-c4c(C)cnn4C)nn3)C2C1` (stereo not drawn) [Compound 14, 6-(2,4-dimethylpyrazol-3-yl)-N-[2-[2-[(3-methyl-2-pyridyl)methyl]-3,3a,4,5,6,6a-hexahydro-1H-cyclopenta[c]pyrrol-4-yl]ethyl]pyridazin-3-amine], the remaining activity at 30 µM worked out at 7.73% and the pIC50 is 5.75.
For `Cc1cnn(C)c1-c1ccc(NCCC2CCC3CN(Cc4ccccc4)CC23)nn1` (stereo not drawn) [Compound 15, N-[2-(2-benzyl-3,3a,4,5,6,6a-hexahydro-1H-cyclopenta[c]pyrrol-4-yl)ethyl]-6-(2,4-dimethylpyrazol-3-yl)pyridazin-3-amine], the remaining activity at 30 µM was determined as 8.5% and the pIC50 is 5.65.
With `Cc1cnn(C)c1-c1ccc(OC2CCC3CN(CC4CC5C=CC4C5)CC32)nn1` (stereo not drawn) [Compound 7, 2-(5-bicyclo[2.2.1]hept-2-enylmethyl)-4-[6-(2,4-dimethylpyrazol-3-yl)pyridazin-3-yl]oxy-3,3a,4,5,6,6a-hexahydro-1H-cyclopenta[c]pyrrole], the remaining activity at 30 µM came to 5.46% and the pIC50 was 5.87.
Regarding `Cc1cnn(C)c1-c1ccc(OC2CCC3CN(Cc4ccccc4)CC32)nn1` (stereo not drawn) [Compound 8, 2-benzyl-4-[6-(2,4-dimethylpyrazol-3-yl)pyridazin-3-yl]oxy-3,3a,4,5,6,6a-hexahydro-1H-cyclopenta[c]pyrrole], the remaining activity at 30 µM is 43.3% and the pIC50 was under 5.00.
On to `Cc1cnn(C)c1-c1ccc(NC2CCC3CN(CC4CC5C=CC4C5)CC32)nn1` (stereo not drawn) [Compound 3, 2-(5-bicyclo[2.2.1]hept-2-enylmethyl)-N-[6-(2,4-dimethylpyrazol-3-yl)pyridazin-3-yl]-3,3a,4,5,6,6a-hexahydro-1H-cyclopenta[c]pyrrol-4-amine], for which the remaining activity at 30 µM worked out at 14% and the pIC50 is 5.48.
For `Cc1cccnc1CN1CC2CCC(Oc3ccc(-c4c(C)cnn4C)nn3)C2C1` (stereo not drawn) [Compound 4, 4-[6-(2,4-Dimethylpyrazol-3-yl)pyridazin-3-yl]oxy-2-[(3-methyl-2-pyridyl)methyl]-3,3a,4,5,6,6a-hexahydro-1H-cyclopenta[c]pyrrole] the same measures were 31.9% and under 5.00.
Consider `Cc1cnn(C)c1-c1ccc(NCC2CCC3CN(CCC(C)(C)C)CC23)nn1` (stereo not drawn) [Compound 19, N-[[2-(3,3-Dimethylbutyl)-3,3a,4,5,6,6a-hexahydro-1H-cyclopenta[c]pyrrol-4-yl]methyl]-6-(2,4-dimethylpyrazol-3-yl)pyridazin-3-amine], for which the remaining activity at 30 µM is 5.11% and the pIC50 is 6.83.
Take `Cc1cnn(C)c1-c1ccc(NCC2CCC3CN(CC4CCCOC4)CC23)nn1` (stereo not drawn) [Compound 24, 6-(2,4-dimethylpyrazol-3-yl)-N-[[2-(tetrahydropyran-3-ylmethyl)-3,3a,4,5,6,6a-hexahydro-1H-cyclopenta[c]pyrrol-4-yl]methyl]pyridazin-3-amine]: the remaining activity at 30 µM is 22.6% and the negative logarithm of the IC50 (pIC50) is under 5.00.
